In patent US20120276190A1 (priority 2009, published 2012):

How the values were obtained:
KB3-1 cells = format: cell-based; details: with immunotoxin, data not shown
SKOV3 = experiment: WST-1 viability of SKOV3 cells; format: cell-based; details: with immunotoxin, data not shown
Procedure: The inhibition of protein synthesis in treated cells was assayed by the addition of 3H-leucine (2 μCi/mL) for 4 hours in 96-well plates. Filter mats and samples were used to count cells using a Wallac beta plate reader. Water-soluble tetrazolium-1 (WST-1; Roche) was added to 96-well plates at a final concentration of 10% and absorbance measured at 450 nm to measure cytotoxicity. Te CellTiter-Glo Luminescent Cell Viability Assay kit (Promega) was used to assay ATP. The Caspase-Glo kit from Promega was used to detect Caspase 3/7. Caspase 3 activity was measured using one of two fluorescent substrates Caspase 3 Fluorometric Assay Kit (R&D Systems) or Caspase 3 Fluorometric-KIT (Invitrogen). The results are reported in fluorescent units per microgram of cell protein. For short-exposure cell-killing assays: KB3-1 cells were seeded in six-well plates at a density of 5×10^4/mL. The next day, cells were treated for 4 hours with either immunotoxin alone, ABT-737 alone, or combinations of both as indicated. At the end of the treatment, the cells were washed with PBS, trypsinized, and re-plated and incubated for 6 more days. Finally, the cells were washed with PBS and then stained with methylene blue (0.5%) in methanol/water (50:50 by volume).

H69AR cells = format: cell-based
Raji cells = format: cell-based
ATF4 in DLD1 cells = experiment: ER stress response (ATF4 immunoblot) in DLD1 cells; format: cell-based; details: 4 hours, ABT-737 10 μmol/L, DTT 10 mmol/L
Description: (§1) Immunoblot analysis is inadequate to detect the cellular uptake of immunotoxins, added at subnanomolar concentrations. Thus, we could not document directly that additional molecules of toxin were delivered to the cytosol. Instead, we sought other evidence that ABT-737 was directly or indirectly interacting with the ER. In various cell types, Bcl-2 family members are found associated with the ER (Oakes S A, et al., Proc Natl Acad Sci USA 2005; 102:105-10 and Scorrano L, et al., Science 2003; 300:135-9). To test if ABT-737 interacted with the ER and provoked an ER stress response, we incubated KB3-1 or DLD1 cells for 4 hours with either ABT-737 or with DTT; the latter being a well-known mediator of ER stress. Treated cell extracts were analyzed for the transcription factor ATF4 (Bernales S, Papa F R, Walter P. Annu Rev Cell Dev Biol 2006; 22:487-508). […] Overall, our results are consistent with ABT-737 acting on the ER and causing, either directly or indirectly, an increased translocation of PE- or CET-based immunotoxins to the cytosol.

ATF4 in KB3-1 cells = experiment: ER stress response (ATF4 immunoblot) in KB3-1 cells; format: cell-based; details: 4 hours, ABT-737 10 μmol/L, DTT 10 mmol/L
Description: as §1

[1] = system: caspase 3/7 in DLD1 cells; format: cell-based
CD22 (human) = CD22 (human) (UniProt P20273); experiment: cell-based or functional assay
UniProt P20273, sequence (P20273 20-847): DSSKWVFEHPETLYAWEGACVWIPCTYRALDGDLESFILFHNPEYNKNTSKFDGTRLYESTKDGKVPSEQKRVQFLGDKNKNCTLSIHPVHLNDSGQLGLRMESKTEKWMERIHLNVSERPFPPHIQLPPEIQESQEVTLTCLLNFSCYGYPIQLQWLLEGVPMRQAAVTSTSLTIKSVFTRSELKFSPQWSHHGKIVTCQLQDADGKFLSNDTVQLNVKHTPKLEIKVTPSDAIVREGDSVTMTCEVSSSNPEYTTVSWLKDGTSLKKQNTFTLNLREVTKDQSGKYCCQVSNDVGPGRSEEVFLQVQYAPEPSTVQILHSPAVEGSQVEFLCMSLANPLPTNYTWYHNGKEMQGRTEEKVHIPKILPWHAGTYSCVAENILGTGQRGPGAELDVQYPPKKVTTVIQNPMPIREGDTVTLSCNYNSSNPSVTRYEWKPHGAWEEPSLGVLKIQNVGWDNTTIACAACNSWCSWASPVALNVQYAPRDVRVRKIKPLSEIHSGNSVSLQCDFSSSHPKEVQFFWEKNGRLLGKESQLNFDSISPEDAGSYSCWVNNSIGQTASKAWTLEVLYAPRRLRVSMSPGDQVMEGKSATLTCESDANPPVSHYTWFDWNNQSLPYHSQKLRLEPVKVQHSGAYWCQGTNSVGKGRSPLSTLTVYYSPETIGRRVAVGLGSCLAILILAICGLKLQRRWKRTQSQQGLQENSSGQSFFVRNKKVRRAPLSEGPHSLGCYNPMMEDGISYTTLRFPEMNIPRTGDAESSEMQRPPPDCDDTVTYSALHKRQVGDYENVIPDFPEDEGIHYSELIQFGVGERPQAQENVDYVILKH

In the case of `CC1(C)CCC(c2ccc(Cl)cc2)=C(CN2CCN(c3ccc(C(=O)NS(=O)(=O)c4ccc(N[C@H](CCN5CCOCC5)CSc5ccccc5)c(S(=O)(=O)C(F)(F)F)c4)cc3)CC2)C1` [ABT-263], the “enhancement of KB3-1 killing” value (KB3-1 cells) is reported as “similarly enhanced”, the “enhancement of SKOV3 killing” value (SKOV3) is reported as “similarly enhanced” and the “effect of combination with HB21-PE40” value (H69AR cells) is reported as “synergistic and leads to cell death via apoptosis”. For the same compound, the “sensitivity to killing, agent alone” value (H69AR cells) was “resistant”, the “apoptosis, ABT-263 alone” value (Raji cells) was “little or no apoptosis” and the “total apoptosis, in combination with BL22” value (Raji cells) was 62%. For the same compound, the “total apoptosis, in combination with HA22” value (Raji cells) was 68%.
`O[C@@H](CS)[C@@H](O)CS` [DTT] was tested, and the “ER stress response (ATF4)” value (ATF4 in DLD1 cells) was “strongly upregulated” and the “ER stress response (ATF4)” value (ATF4 in KB3-1 cells) was “strongly upregulated”.
For `CN[C@@H]1C[C@H]2O[C@@](C)([C@@H]1OC)n1c3ccccc3c3c4c(c5c6ccccc6n2c5c31)C(=O)NC4` [staurosporine], the “apoptosis, positive control for generating maximal apoptosis” value (Raji cells) was ~74%.
With `CC(C)C[C@H](NC(=O)[C@H](Cc1ccccc1)NC(=O)c1cnccn1)B(O)O` [velcade, bortezomib] the “apoptosis by caspase 3/7 activity” value [1] was “increased caspase 3/7 activity”.
“BL22 (from UniProt P11439 278-389; P11439 406-638)” was tested, and the total apoptosis of Raji cells in 24 hrs (Annexin V / 7-AAD flow cytometry) (CD22 (human)) was 47%.
